The values that follow come from patent US6613304B2, “Radiometal complexes of 2-pyrrolylthiones and their use as radiopharmaceuticals for imaging and therapy” (University of British Columbia, priority 2000, dated 2003).

Entries after “also recorded” stand apart in the source; their conditions may differ.

Data set [1] in a line: Stability towards oxidation. Format: physicochemical. The settings on record: for stability towards oxidation: in solid state and in solution.
The nature of data set [2]: Renal imaging: scintigraphic biodistribution of Tc-99m complexes in rats. The settings on record: for accumulation in the cortex: 1.5 min post injection, very fast linear accumulation; for scintigraphic image of the kidneys: one hour post injection, FIG. 5. Format: in vivo, male Sprague and Dawley rats. The protocol: A group of 3 male Sprague and Dawley rats were anaesthetised by intra-muscluar administration of a mixture of Ketamine Xylazine (1 ml/Kg). A 26 guage Butterfly was introduced into the lateral tail vein and filled with heparinised physiological saline. The animals were injected with the indicated radiopharmaceutical, in the minutes following the beginning of the acquisition.
Dose activities were measured in an Accucal 2001 dose calibrator Nuclear Pharmacy Inc. (Albuquerque, N. Mex., U.S.A). Scvintigraphic mages were recorded with a Starcam 4000i XRT Gamma camera General Electric (Saint Albans, UK) equipped with a parallel, medium energy, high resolution collimator. Image analysis was performed on a Genie PNR model nuclear medicine dedicated computer General Electric (Saint Albans, UK).
The camera was set to record a series of 32 images at 1 min intervals each, the animals were injected successively starting from animal A after the camera was started. All injections were finished within the first one and a half minute. Following each injection the catheter was flushed with 0.5 ml of physiological saline. Following this first acquisition a second dynamic acquisition was recorded at a rate of one image every 10 minutes. The animals woke up 90 min after injection at which time the study was terminated.
For analysis, the areas of interest were traced around the organs of interest (right and left kidneys for the first dynamic study; and heart, left kidney and bladder at image 60 min. post-injection on the second study) and the whole body of the rats. The result were expressed as counts per seconds or as percent of the whole body activity at a given time, and are presented in FIGS. 5-9.

For data set [3] the following is noted: cited from earlier work; for clearance relative to OIH: % of that of OIH.
For data set [4] the following is noted: cited from earlier work.
For data set [5] the following is noted: healthy subjects; cited from earlier work.

Turning to “Bis(2,2′-dipyrrolylthionato) ^99g Tc]oxotechnetium [compound 6]”, the stability towards oxidation entry in data set [1] is “stable towards oxidation”.
“^99mTcO-disulfo-di-2-pyrrolylthionate [compound 9]”: the “accumulation in the cortex” value in data set [2] is 20%. In addition, in data set [2] (1 hour post-injection), the “excretion rate as evaluated by measuring the activity found in the bladder” value is given as “best excretion rate”. In addition, the “detected radioactivity in the kidneys reaching a plateau” value in data set [2] (as compared to DMSA, FIGS. 6-8) is listed as “reach a plateau more rapidly”. Further, the “scintigraphic image of the kidneys” value in data set [2] (listed as TcSL-11) is listed as “better resolved the kidneys; also recorded: kidneys are well visualised”. Further, the “accumulation in the cortex at plateau” value in data set [2] (plateau at about 35 min to 1 hour post injection) is 22%.
On to `Nc1ccc(C(=O)NCC(=O)O)cc1` [PAH, p-aminohippurate], for which, in data set [3] (in vivo), the “extracted from the renal arterial plasma in a single pass through the renal parenchyma” value is approximately 90%.
For `O=C([O-])CN=C([O-])CN=C([O-])CN=C([O-])C[S-].[O-2].[Tc+4]` [Tc-99m-MAG3, ^99mTc-mercaptoacetyltriglycine], the “clearance relative to OIH” value in data set [3] is listed as 50-60%. Further, the “injected dose found in the kidneys” value in data set [3] (a few minutes post injection) is 1-2%. Moreover, the plasma protein binding entry in data set [4] is on record as “very high”.
As to “Tc-99m-dimercaptosuccinic acid [DMSA, reference compound]”, in data set [5], the “steady level of renal uptake, of the activity administered” value is on record as approximately 30% and the “time after injection until which renal activity increases” value was 6 to 8 h. In addition, in data set [2] (1 hour post-injection), the “activity in the calyx area” value is reported as “significant activity in the calyx area” and the “blood clearance (heart area used as a measure of blood activity)” value is recorded as “more rapidly cleared”. The overall kidney uptake entry in data set [2] (1 hour post-injection, left kidney only) was “highest activity”. Moreover, the “scintigraphic image of the kidneys” value in data set [2] was “kidneys are well visualised”. In addition, the plasma protein binding entry in data set [4] is reported as “almost completely bound to the proteins”.
With “Bis(3,4-dimethoxyphenyl-2-pyrrolylthionato) [99g Tc]oxotechnetium [compound 8]”, the stability towards oxidation entry in data set [1] is on record as “stable towards oxidation”.
For the compound “^99mTcO-tetrasulfo-di-2-pyrrolylthionate [compound 10]”, the “accumulation in the cortex” value in data set [2] was found to be 20%. The “excretion rate as evaluated by measuring the activity found in the bladder” value in data set [2] (1 hour post-injection) is “best excretion rate”.
On to `O=C(O)CNC(=O)c1ccc(NC(=O)CN(CC(=O)O)CC(=O)O)cc1` [PAHIDA, p-[(biscarboxymethylaminomethyl)carbamino]hippuric acid], for which the “clearance relative to OIH” value in data set [3] is “less than 50%”.
`COc1ccc(C(=S)c2ccc[nH]2)cc1OC` [3,4-dimethoxyphenyl-2-pyrrolylthione, 3,4-Dimethoxyphenyl-2-pyrrolylthione]: the “stability at room temperature” value in data set [1] (atmospheric oxygen) is reported as “unstable at room temperature”.
Take “Bis(p-methoxyphenyl-2-pyrrolylthionato) [^99g Tc]oxotechnetium [compound 7]”: the stability towards oxidation entry in data set [1] is “stable towards oxidation”.
